Test results as given in PubChem BioAssay AID1918955 (Molecular Pharmacology Branch, DTP, NCI, 2023).
Several values for one entry are separate records, joined by “and”; a condition that tells them apart may be missing. Equal values may be shown once.

Test system: NCI/ADR-RES complex spheroid viability
Experiment: Anticancer human tumor NCI/ADR-RES cell line growth inhibition;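 note: spheroids exposed to compounds for 7 days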;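 for viability, T/C: 100% = DMSO vehicle treated spheroids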
Conditions: for viability, T/C: stronger effect = lower value
From the text: Multicellular complex tumor spheroid response to LSD1 Inhibitor Iadademstat in combination with a variety of drugs and investigational agents in selected tumor cell lines
The current study was undertaken to assess response to LSD1 inhibitors in combination with standard-of-care drugs and investigational agents in solid tumor complex spheroid models as well as in the K-562 leukemia. Complex spheroids include a stromal component modeled by human endothelial cells (HUVEC) and fibroblasts modeled by human mesenchymal stem cells (MSCs). The concentration ranges selected for each drug and investigational agent were based upon clinically achievable concentrations if the clinical Cmax of the agent was known.
Compounds. The drugs and investigational agents used in this study are listed on Table 1. All of the agents used, including staurosporine (NSC755774) and gemcitabine (NSC613327), were obtained from the Developmental Therapeutics Program, NCI. FDA-approved anticancer drugs are available from the NCI at http://dtp.nci.nih.gov/branches/dscb/oncology_drugset_explanation.html. Drugs and investigational agents were >95% pure by proton nuclear magnetic resonance (NMR) and liquid chromatography/mass spectrometry (LC/MS). Stock solutions were prepared at 400x in DMSO, stored at -70 degrees C, and diluted in fresh medium prior to their use. The final concentration of DMSO in cell culture wells never exceeded 0.25% (v/v). The FDA-approved anticancer drug set is available from the Developmental Therapeutics Program at https://dtp.cancer.gov/organization/dscb/obtaining/available_plates.htm. All drugs and investigational agents were tested over a range starting from a high concentration at or near the clinical Cmax and decreasing in half-log increments. If the clinical Cmax for an agent had not been determined, the highest concentration tested was 10 microM.
Cell Lines. The patient-derived cancer cell (PDC) lines: 292921-168-R-J2-PDC, K24384-001-R-PDC, and 521955-158-R2-J5-PDC pancreatic carcinomas, 556581-035-R-J1 ovarian carcinoma, 324938-238-R-J1-PDC, 855422-203-R-J1-PDC and 883617-216-R-J1-PDC urothelial bladder carcinomas, 743489-274-T-PDC renal cell carcinoma, 138582-R-J1 Merkel cell tumor, K60290-347-R-J1 and K57222-313-R-J1-PDC glioblastomas, 653999-131-R-J2-PDC, LG0703-F948-PDC, and 349418-098-R-PDC non-small cell lung carcinomas, 885512-296-R-J2-PDC, 171881-019-R-J1-PDC breast carcinomas and 186277-243-T-J2-PDC and 233499-124-R-J2-PDC colon carcinomas were obtained from the NCI Patient-Derived Models Repository (PDMR, https://pdmr.cancer.gov). The established cell lines NCI/ADR-RES (RRID:CVCL_14520 and OVCAR-5 (RRID:CVCL_1628) ovarian carcinomas, 786-O (RRID:CVCL_1051) and A498 (RRID:CVCL_A498) renal cell carcinoma, NCI-H211 (ATCC, cat. CRL-5824; RRID:CVCL_1529), NCI-H196 (ATCC, cat. CRL-5823, RRID:CVCL_1509), SW 1271 (ATCC, cat. CRL-2177, RRID:CVCL_1716) and NCI-H1876 (ATCC, cat. CRL-5902, RRID:CVCL_1503) small cell lung carcinomas, MDA-MB-231 (RRID:CVCL_0062) and MDA-MB-468 (RRID:CVCL_0419)breast carcinomas (10-12). Pooled donor human umbilical vein endothelial cells (HUVEC, Lonza, cat. CC-2519) and human mesenchymal stem cells (hMSC, Lonza, cat. PT-2501) were purchased from Lonza (Walkersville, MD).
Cell Culture. All cells were maintained in an incubator at 37 degrees C and 5% CO2 with 95% humidity. The PDC lines were cultured according to standard operating procedures established by the NCI PDMR (https://pdmr.cancer.gov). Briefly all PDCs were thawed and cultured in Matrigel-coated flasks prepared with a working solution of 1X Ham's F-12 nutrient mix, without supplementation (Invitrogen, Waltham, MA, cat. 11765054), 100 U/mL penicillin-streptomycin (Invitrogen, cat. 15140122), and 2.5% Matrigel (Corning Inc., Corning, NY, cat. 354248) for the first three passages. […]

Compound	viability, T/C (compound 0.00316 µM)	viability, T/C (compound 0.01 µM)	viability, T/C (compound 0.0316 µM)	viability, T/C (compound 0.1 µM)	IC50 (curve of compound)	viability, T/C (compound 0.316 µM)	viability, T/C (compound 1 µM)	viability, T/C (compound 3.16 µM)	viability, T/C (compound 10 µM)	viability, T/C (compound 0.00949 µM)	viability, T/C (compound 0.03 µM)	viability, T/C (compound 0.0949 µM)	viability, T/C (compound 0.3 µM)	also measured
CC(C)CC(NC(=O)C(Cc1ccccc1)NC(=O)c1cnccn1)B(O)O (centres undefined)	92.5% and 93.3%	47.3% and 51.2%	5.97% and 5.35%	2.36% and 0.51%	9.31 nM and 9.96 nM									viability, T/C (compound 0.000316 µM): 96.1% and 106%; viability, T/C (compound 0.001 µM): 102% and 107%
CC(C)CC(NC(=O)CNC(=O)c1cc(Cl)ccc1Cl)B1OC(=O)CC(CC(=O)O)(C(=O)O)O1 (centres undefined)	103% and 105%	71.3% and 79.3%	45.7% and 33.5%	4.13% and 1.05%	25 nM and 21 nM									viability, T/C (compound 0.000316 µM): 98% and 97.7%; viability, T/C (compound 0.001 µM): 105% and 96.7%
CC(C)c1c(-c2ccccc2)nc2c(C#N)c[nH]n2c1=O			103% and 102%	99.6% and 94.7%	> 10000 nM	96.5% and 96.3%	104%	98.6% and 93.1%	94.6% and 96.8%					
CC1(C)CCC(CN2CCN(c3ccc(C(=O)NS(=O)(=O)c4ccc(NCC5CCOCC5)c([N+](=O)[O-])c4)c(Oc4cnc5[nH]ccc5c4)c3)CC2)=C(c2ccc(Cl)cc2)C1			99.8% and 108%	108% and 106%	> 10000 nM	101% and 106%	104% and 105%	101% and 104%	94.1% and 90%					
CC1COCCN1c1cc(-c2ccnn2C)c2ccnc(-c3ccn[nH]3)c2n1 (centres undefined)	89.5% and 71.9%	61.3% and 41.6%	11.2% and 7.14%	3.93% and 1.95%	13 nM and 7.27 nM	2.2% and 2.13%	4.12% and 1.96%							
CC1COCCN1c1cc(C2(S(C)(=N)=O)CC2)nc(-c2ccnc3[nH]ccc23)n1 (centres undefined)			101% and 106%	96% and 110%	> 10000 nM and 7480 nM	93.8% and 98.5%	91.3% and 86.3%	72% and 71.1%	57.2% and 43.1%					
CCN(c1cc(-c2ccc(CN3CCOCC3)cc2)cc(C(=O)NCc2c(C)cc(C)[nH]c2=O)c1C)C1CCOCC1					> 3000 nM					99.6% and 106%	98.7% and 102%	98.2% and 104%	99% and 97.8%	viability, T/C (compound 0.949 µM): 91.6% and 97.3%; viability, T/C (compound 3 µM): 86.3% and 88%
CC[C@@]1(O)C(=O)OCc2c1cc1n(c2=O)Cc2cc3c(CN(C)C)c(O)ccc3nc2-1	78.6% and 75.9%	39.1% and 39.4%	7.88% and 7.23%	2.74% and 2.23%	7.18 nM and 7.06 nM									viability, T/C (compound 0.000316 µM): 102% and 96.9%; viability, T/C (compound 0.001 µM): 102% and 100%
CCc1c2c(nc3ccc(O)cc13)-c1cc3c(c(=O)n1C2)COC(=O)[C@]3(O)CC					< 0.949 nM					0.57% and 0.82%	6.31% and 0.48%	0.34% and 0.47%	0.83% and 0.64%	viability, T/C (compound 0.000949 µM): 4.28% and 3.34%; viability, T/C (compound 0.003 µM): 2.36% and 1.64%
COc1cc(C2c3cc4c(cc3C(OC3OC5COC(C)OC5C(O)C3O)C3COC(=O)C23)OCO4)cc(OC)c1O (centres undefined)					> 3000 nM					96.8% and 107%	100% and 104%	96.4% and 104%	95.8% and 105%	viability, T/C (compound 0.949 µM): 96.1% and 98.4%; viability, T/C (compound 3 µM): 93.1% and 90.2%
COc1cc(Nc2ncc3c(n2)-c2ccc(Cl)cc2C(c2c(F)cccc2OC)=NC3)ccc1C(=O)O	95.4% and 84.5%	64.5% and 50%	32.7% and 30%	22.9% and 20.4%	16.9 nM and 10 nM	22.6% and 16.1%	19.7% and 15.5%							
COc1ccc([C@@H](O)c2cc(-c3ncnc4cc(N5CCOCC5)ccc34)c(F)cc2Cl)nn1			106%	99.9% and 99.3%	3810 nM and 2980 nM	87.1% and 94.3%	77.2% and 72.6%	52.9% and 49.2%	28.3% and 28%					
Cn1ncnc1C1c2n[nH]c(=O)c3cc(F)cc(c23)NC1c1ccc(F)cc1 (centres undefined)	106% and 103%	99.4% and 99.5%	96.5% and 100%	105% and 101%	> 100 nM									viability, T/C (compound 0.000316 µM): 103% and 101%; viability, T/C (compound 0.001 µM): 109% and 102%
NC1CC1c1ccc(-c2cccc(O)c2)cc1 (centres undefined)				99.3% and 104%		105% [middle of 24 runs]	99.4% [middle of 24 runs]	97.5% [middle of 25 runs]	86.9% [middle of 25 runs]					IC50 (compound alone, run of 12/07/2021): > 10000 nM
NC1CCC(NC2CC2c2ccccc2)CC1 (centres undefined)				104% [middle of 25 runs]		110% and 108% (2×)	102% [middle of 24 runs]	99.8% [middle of 25 runs]	91.5% [middle of 23 runs]					IC50 (compound alone, run of 11/29/2021): > 10000 nM
NS(=O)(=O)OCC1CC(n2ccc3c(NC4CCc5ccccc54)ncnc32)CC1O (centres undefined)					605 nM and 791 nM					94% and 94.6%	91% and 98.8%	87.3% and 86.9%	72.3% and 74.8%	viability, T/C (compound 0.949 µM): 35.7% and 45.3%; viability, T/C (compound 3 µM): 14.5% and 17.2%
Nc1ccccc1NC(=O)c1ccc(CNC(=O)OCc2cccnc2)cc1					1470 nM and 900 nM					105% and 99.8%	98.3% and 100%	88.4% and 94.4%	81.6% and 75.8%	viability, T/C (compound 0.949 µM): 58.7% and 49.3%; viability, T/C (compound 3 µM): 33.9% and 26.6%
Nc1ccn(C2OC(CO)C(O)C2(F)F)c(=O)n1 (centres undefined)					< 0.949 nM					3.95% and 4.1%	3.55% and 2.02%	3.71% and 1.86%	1.91% and 1.26%	viability, T/C (compound 0.000949 µM): 8.59% and 3.05%; viability, T/C (compound 0.003 µM): 3.76% and 3.9%
Nc1ncn(C2CC(O)C(CO)O2)c(=O)n1 (centres undefined)	95.5% and 91.8%	89.1% and 76.3%	71% and 57.2%	40.1% and 33.6%	70.8 nM and 43.4 nM	27.4% and 18.6%	19.8% and 12.7%							
Nc1ncn(C2CC(O)C(CO)S2)c(=O)n1 (centres undefined)					14.1 nM and 6.82 nM					53.8% and 40.1%	38.7% and 27.5%	21.2% and 11.8%	6.02% and 3.16%	viability, T/C (compound 0.000949 µM): 86.4% and 84.4%; viability, T/C (compound 0.003 µM): 75.9% and 67.9%
O=C(C=Cc1cccc(S(=O)(=O)Nc2ccccc2)c1)NO					69.7 nM and 72.5 nM					95.3% and 96%	81.6% and 75.3%	36.6% and 42%	16.7% and 17.2%	viability, T/C (compound 0.949 µM): 7.77% and 6.17%; viability, T/C (compound 3 µM): 2.68% and 1.54%
O=C(C=Cn1cnc(-c2cc(C(F)(F)F)cc(C(F)(F)F)c2)n1)NNc1cnccn1	69.8% and 61.6%	28.8% and 22.1%	20.3% and 16.5%	10.6% and 5.99%	5.78 nM and 4.49 nM	6.07% and 1.5%	2.27% and 0.91%							
O=C(c1cc(Cc2n[nH]c(=O)c3ccccc23)ccc1F)N1CCN(C(=O)C2CC2)CC1			102%	102% and 99.6%	> 10000 nM	104% and 102%	105% and 97.3%	90.7% and 95.4%	89.6% and 85%					
